Test results taken from paper PMC5116089, “Sulfheme formation during homocysteine S-oxygenation by catalase in cancers and neurodegenerative diseases” (Nature Communications, 2016).

Biological target: T1, immunocaptured catalase (Homo sapiens, UniProt P04040)
T1 construct: Endogenous catalase activity in cell lysates; endogenous in cells; host or cells: human colorectal cancer cell lines; BE2-M17 human neuroblastoma cells (with or without rotenone)
T1 sequence (P04040 2-527 limits assumed): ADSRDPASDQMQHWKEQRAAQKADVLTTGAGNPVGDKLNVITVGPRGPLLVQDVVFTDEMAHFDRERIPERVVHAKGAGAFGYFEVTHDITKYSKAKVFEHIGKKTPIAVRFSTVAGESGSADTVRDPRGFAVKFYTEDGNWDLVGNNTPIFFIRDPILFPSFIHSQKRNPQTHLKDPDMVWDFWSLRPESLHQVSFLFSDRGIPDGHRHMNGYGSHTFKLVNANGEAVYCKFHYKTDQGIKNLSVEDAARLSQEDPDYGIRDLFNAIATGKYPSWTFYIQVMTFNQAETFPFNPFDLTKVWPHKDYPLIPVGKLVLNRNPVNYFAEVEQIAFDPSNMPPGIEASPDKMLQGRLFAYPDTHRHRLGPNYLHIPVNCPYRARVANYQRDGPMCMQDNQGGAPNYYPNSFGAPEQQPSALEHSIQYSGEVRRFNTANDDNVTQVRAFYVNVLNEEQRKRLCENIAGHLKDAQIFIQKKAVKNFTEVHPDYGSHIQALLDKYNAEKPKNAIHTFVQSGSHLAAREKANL
Assay: Relative specific activity of immunocaptured catalase (SpCAT) after incubation with NaSH
Assay type: biochemical
Conditions: for effect of NaSH on SpCAT: NaSH 0–50 μM
Method: The relative specific activity (activity and quantity) of catalase in the cell lysates was determined using the kit ab118184 from Abcam (Cambridge, MA). The measurements were performed in duplicate as per the manufacturer's protocol. Briefly, catalase in cell lysates (0.1–0.2 mg cell lysates per assay) was immunocaptured within the wells of the microplate. An assay buffer, which contains H2O2 that reacts with a substrate to generate a luminescent product, was added to each well. The presence of catalase in the reaction mixture reduces the production of light and the light produced in each well is thus inversely proportional to the amount of catalase activity. Then, the quantity of catalase was measured by adding to each well an anti-catalase primary detector antibody. After 1 h incubation at RT, the unbound detector antibody was washed away and an HRP-conjugated labelled secondary antibody specific for the primary detector antibody was added to the wells. After 1 h incubation, the wells were again washed and a 3,3′,5,5′-Tetramethylbenzidine (TMB) substrate solution was added to the wells. A blue colour (absorbance at 600 nm) developed in proportion to the amount of catalase bound. Luminescence and absorbance measurements were performed on an EnSpire Multilabel Reader 2300 (PerkinElmer). To check the effect of NaSH on the relative specific activity of catalase, the immunocaptured catalase was incubated with various concentrations of NaSH (0–50 μM) for 5 min at RT before carefully washing twice each well. The protocol above was then followed to determine activity measurement and catalase quantification.

Compound: [Na+].[SH-] [NaSH]
- response of SpCAT towards NaSH (BE2-M17 cells versus rotenone-treated BE2-M17 cells): similar
- effect of NaSH on SpCAT (HCT-15 cancer cells): inhibited
- effect of NaSH on SpCAT (HCT-116 cancer cells): almost unaffected
- effect of NaSH on SpCAT (HT-29 Glc−/+ control cell line): almost unaffected
- effect of NaSH on SpCAT (MDST8 cancer cells): activated
